Measurements taken from article PMC11778240, “Synthesis and preclinical evaluation of tigilanol tiglate analogs as latency-reversing agents for the eradication of HIV” (Science Advances, 2025).

Key:
interleukin-8 = experiment: IL-8 ELISA, A549 cells; type: cell-based, Human; details: 24 hours
Experimental: Because SUW402 and SUW431 are potent activators of NF-κB, we used an enzyme-linked immunosorbent assay to measure their ability to up-regulate inflammatory cytokine production (tumor necrosis factor–α and interleukin-8). We stimulated A549 cells with SUW402 and SUW431 at the same concentrations used in the NF-κB activation assay: 500 and 50 nM (figs. S1 and S2). […] At 500 or 50 nM, both SUW402 and SUW431 produced only modest levels of interleukin-8, a 15 to 25% increase relative to the DMSO negative control.
Enzyme Linked Immunosorbent Assay (ELISA) for SUW402 and SUW431 mediated IL-8 and […]
In efforts to replicate the conditions of the in vitro NF -κB assay, 5 x 10^4 A549 cells were plated per well on Corning® 96-well Clear Round Bottom TC-treated Microplates in 180 μl of pre-warmed DMEM (4.5 g/L glucose, 10% FBS, and 1% Pen-Strep-Glutamine (100 X, 50 mg/mL)).
Following incubation at 37 °C in 5% CO2 for approximately 24 hours to allow for cell adherence, 1.8 μl of either SUW402 or SUW431 were added in triplicate to their respective wells to achieve a final compound concentration of either 50 nM or 500 nM, the two concentrations tested in the NF-κB assay. 24 hours after compound addition, the microplate containing cells treated with compound was spun at 1800 rpm for 3 minutes to allow for pelleting of cells and other debris before 150 μL of cellular supernatant was aspirated and transferred to a new Corning® 96 -well Clear Round Bottom TC-treated Microplate. Note that if the supernatant is not meant to be immediately analyzed, the microplate containing cellular supernatant should be paraf ilm, wrapped, and stored at -80 °C. Careful attention should be paid to avoiding freeze-thaw cycles. To quantify cytokine secretion within samples, dilutions were performed using Assay Buffer A included in the LEGEND MAX™ Human IL-8 ELISA Kit (Cat # 431507) and LEGEND MAX™ Human TNF-α ELISA Kit (Cat # 430207), respectively.
Immediately before running the assay, reagents were allowed to come to room temperature and diluted. Note that if the supernatant is frozen, it should be removed at this time and allowed to thaw. The 1X Wash Buffer was prepared by diluting the 20X Wash Buf fer with Invitrogen™ UltraPure™ DNase/RNase-Free Distilled Water. The lyophilized human IL-8 and TNF-α standards were reconstituted by adding the appropriate volume of Assay Buffer A to prepare the 20 ng/mL standard stock solutions. The reconstituted stand ards were allowed to sit at room temperature for 20 minutes before being gently vortexed to ensure complete mixing. To generate a standard curve for each cytokine, 500 μL of a 1,000 pg/mL top standard was prepared after which six two -fold serial dilutions of the top standard were performed in 1.7 mL microcentrifuge tubes using Assay […]

tumor necrosis factor–α = experiment: TNF-α ELISA, A549 cells; type: cell-based, Human; details: for TNF-α (ELISA): 24 hours, lowest detectable limit 3.5 pg/ml
Experimental: The Anti-Human IL-8 pre-coated 96-well Strip Microplate and Anti-Human TNF-α pre-coated 96-well Strip Microplate were each washed 4 times by hand. With each wash, at least 300 μL of 1X Wash Buffer was added per well and aspirated, and any residual buffer was removed by blotting the plate on an absorbent paper towel. Following this wash cycle, 50 μL of Assay Buffer A was added to each well that would ultimately contain sample or standard. To rigorously ensure no cellular debris was left in the analyte, an ad ditional centrifugation step was performed (1800 rpm for 3 minutes) before transferring 50 μL of sample or standard dilutions to the appropriate wells.
Adhesive plate sealers were utilized to cover the plates, prevent contamination, and avoid sample evaporation after which each plate was placed on a cell shaker and allowed to shake at room temperature at 200 rpm for 2 hours. Following incubation, the contents of each plate were discarded and subsequently washed by hand 4 times with 1X Wash Buffer, as previo usly reported. […]

mast cell tumors = mast cell tumors in canines; cited from earlier work

SMILES	IL-8 (ELISA) (interleukin-8; 50 nM)	IL-8 (ELISA) (interleukin-8; 500 nM)	TNF-α (ELISA) (tumor necrosis factor–α; 50 nM)	TNF-α (ELISA) (tumor necrosis factor–α; 500 nM)	tumor necrosis factor–α production in words (tumor necrosis factor–α; 500 and 50 nM)	cure rate (mast cell tumors)
C/C=C(\C)C(=O)O[C@@H]1[C@@H](C)[C@@]2(O)[C@H]([C@@H]3C(C)(C)[C@]13OC(=O)Cc1cccc3ccccc13)[C@@H]1O[C@]1(CO)[C@@H](O)[C@]1(O)C(=O)C(C)=C[C@H]12 [SUW431]	3369 pg/mL	3232 pg/mL	4.4 pg/mL	8.4 pg/mL		
C/C=C(\C)C(=O)O[C@@H]1[C@@H](C)[C@@]2(O)[C@@H](C=C(CO)C[C@]3(O)C(=O)C(C)=C[C@@H]23)[C@@H]2C(C)(C)[C@]12OC(=O)[C@@H](C)CC [SUW402]	3352 pg/mL	3106 pg/mL	< 3.5 pg/mL	< 3.5 pg/mL	did not produce detectable levels of tumor necrosis factor–α at either concentration	
C/C=C(\C)C(=O)O[C@@H]1[C@@H](C)[C@@]2(O)[C@H]([C@@H]3C(C)(C)[C@]13OC(=O)[C@@H](C)CC)[C@@H]1O[C@]1(CO)[C@@H](O)[C@]1(O)C(=O)C(C)=C[C@H]12 [EBC-46, Tigilanol tiglate]						≤ 88%
